Test results published in patent US20100317078A1, “METHODS TO IMPROVE ALCOHOL TOLERANCE OF MICROORGANISMS” (Cornell Research Foundation Inc, priority 2007, published 2010).
Values joined by “and” are separate entries in the source; they are usually repeats but may differ in a detail not shown here. Identical values can stand only once. Like-named read-outs stand apart in the source and are kept apart here.

How the values were obtained:
[1] = system: S. cerevisiae mutant derivative MVY#2015 (opi1)
Description: (§1) The method for examining ethanol tolerance using a plating technique was adapted from Chi et al. (Chi et al., “Role of Phosphatidylinositol (PI) in Ethanol Production and Ethanol Tolerance By a High Ethanol Producing Yeast,” J Industrial Microbiology Biotechnology 22:58-63 (1999), which is hereby incorporated by reference in its entirety). Inocula of wild type and opi1 yeast strains were prepared as previously described. Cells were centrifuged at 4,500 rpm for 5 min at 4° C. (Sorvall Legend R T, Kendro Laboratory Products, Asheville, N.C.), and the supernatant was removed. Cells were washed twice with −I media, centrifuged at 4,500 rpm for 5 min, and the resulting pellet was stored at 4° C.
(§2) The cell pellets were re-suspended in inositol-free media and the OD was measured. Cells were inoculated into a 500-mL polycarbonate Erlenmeyer flask containing 110-mL of synthetic media either containing (+I) or lacking inositol (−I) at a final OD of 0.1. The cell cultures were placed in an incubator-shaker at 30° C. and 250 rpm until the OD reached 0.5.
(§3) Two volumes of cell suspension containing 1×10^8 cells—previously determined by cell counting with a hemacytometer (Bright-Line Hemacytometer, Reichert Scientific Instruments, Buffalo, N.Y.)—were removed from the flasks and placed in separate sterile 50-mL centrifuge tubes. Cells were centrifuged at 4,500 rpm for 5 min at 4° C. and the supernatant was removed. Cells were washed twice with either −I or +I media as previously described, and the resulting supernatants were discarded. Ten mL of ethanol (10, 15 or 18% (v/v)) was added to one of the 50-mL centrifuge tubes containing a washed cell pellet and this represented the “shocked culture.” As a control, 10-mL of sterile water was added to the second 50-mL tube containing a washed cell pellet. Two 25-μl aliquots of the control culture were removed and plated on YPD plates, representing time zero of the experiment. Cell suspensions were transferred from 50-mL centrifuge tubes to 25-mL sterile glass tubes. The glass tubes were placed in an incubator-shaker at 30° C. and 250 rpm.
(§4) Samples of both the shocked and control cultures were taken every hour for 4 hr. Shocked cells were diluted in ethanol (10, 15, or 18%, consistent with the concentration of the shocked culture) at dilution factor of 1:1000. Control cells were diluted in sterile water at the same dilution factor. Duplicate 25-μl aliquots were plated on YPD plates for each sample of either shocked or control cell cultures over the 4 hr time course. All plates were placed in a 30° C. incubator. Colonies were counted on all plates after 48 and 72 hr. Duplicate plate counts were averaged. Ethanol tolerance of each strain, in terms of cell viability, in either +I or −I media over a range of ethanol concentrations, was expressed as a ratio of the number of colonies counted in the shocked culture at 72 hr to the number of colonies counted in the control culture at 72 hr. Cell viability in the control culture at time-zero of the experiment was assumed to be 100%.
(§5) Ethanol tolerance of each strain was calculated, in terms of cell viability (CV), using the number of colony forming units (CFUs) in the shocked and control cultures after 72 hr of incubation using the following equation:
(§6) Cell viability in the control culture at time-zero of the experiment was assumed to be 100%. All ethanol concentrations are volume-volume percentages (v/v), while all glucose concentrations are in weight-volume percentages (w/v).
(§7) To model the data presented in FIGS. 1 and 2 and to estimate specific death rates a simple first-order kinetic model was fitted to the data using the nonlinear parameter estimation tool in KaleidaGraph (Synergy Software, Reading, Pa.):
(§8) d=specific death rate, (hr^−1)

[2] = system: S. cerevisiae wild type diploid MVY#2008; conditions: for Specific Death Rates in 2% Glucose (d): WT
Description: as §1, §2, §3, §4, §5, §6, §7, §8

[3] = system: S. cerevisiae mutant derivative MVY#2013 (opi1); conditions: for increase in μ value for opi1 over wild type: 5% ethanol; for Specific Growth Rates in 2% Glucose (μ) / Specific Growth Rates in 12% Glucose (μ): 5% Ethanol
Description: (§9) The method for examining ethanol tolerance by profiling yeast growth was adapted from You et al. (You et al., “Ethanol Tolerance in the Yeast Saccharomyces cerevisiae is Dependent on Cellular Oleic Acid Content,” Applied Environ Microbiology 69:1499-1503 (2003), which is hereby incorporated by reference in its entirety). Inocula of wildtype and opi1 yeast strains were prepared as previously described (see Plating Assays) except a Marathon 21K/BR bench top centrifuge (Fisher Scientific, Inc., Hampton, N.H.) was used. The cell pellet was suspended in —I media and the OD was measured by pipetting […] of the cell suspension into a clean well of a 96 well plate and reading OD in a plate reader (Synergy HT Multidetection Microplate Reader, Bio-Tek Instruments, Inc., Winooski, Vt.).
(§10) Cells were inoculated into 125-mL polycarbonate Erlenmeyer flasks with 50-mL of +I or −I containing either 2% or 12% glucose and 0 or 5% ethanol, at a final OD of 0.05. Each media type was performed in triplicate for both yeast strains. Flasks were placed in an incubator-shaker at 30° C. and 250 rpm (Gyratory Waterbath Shaker, New Brunswick Scientific, Edison, N.J.). The OD of each culture was measured over a period of at least 36 hr or until the cell density had stabilized for a period of no less than 12 hr. Triplicate OD measurements were performed for each sample and measurements were averaged.
(§11) Specific growth rate, or the growth rate over time per unit of biomass, was calculated in order to provide a quantitative assessment of the impact of experimental conditions on growth rate. Specific growth rates were estimated for both yeast strains for all of the conditions mentioned using the following first order kinetic equation:
(§12) μ=specific growth rate, (hr^−1)
(§13) This equation was fit to the data presented in FIGS. 3 through 6 using the nonlinear parameter estimation tool in KaleidaGraph.

[4] = system: S. cerevisiae wild type haploid MVY#19; conditions: WT, 5% Ethanol
Description: as §9, §10, §11, §12, §13

## CCO [Ethanol, ethanol]
[1]; both grown in +I media
  d of opi1 in 18% ethanol, lower than d of wild type in 15% ethanol: 38%
[1]; opi1, 10% ethanol, with or without inositol in growth media
  specific death rate d: less than 0.1 hr^−1
[1]; opi1, 15% ethanol
  increase of d after growth in −I media in comparison to +I media: 11%
[1]; opi1, grown in I+ media, shocked in 10% Ethanol
  Specific Death Rates in 2% Glucose (d): 0.036 h⁻¹
[1]; opi1, grown in I+ media, shocked in 15% Ethanol
  Specific Death Rates in 2% Glucose (d): 0.71 h⁻¹
[1]; opi1, grown in I+ media, shocked in 18% Ethanol
  Specific Death Rates in 2% Glucose (d): 1.61 h⁻¹
[1]; opi1, grown in I− media, shocked in 10% Ethanol
  Specific Death Rates in 2% Glucose (d): 0.006 h⁻¹
[1]; opi1, grown in I− media, shocked in 15% Ethanol
  Specific Death Rates in 2% Glucose (d): 0.79 h⁻¹
[2]; 15% ethanol after growth in +I media
  d of wild type cells relative to opi1 cells: over 3.5 times
[2]; 15% ethanol after growth in −I media
  d of wild type cells relative to opi1 cells: nearly four times
[2]; grown in I+ media, shocked in 10% Ethanol
  Specific Death Rates in 2% Glucose (d): 0.084 h⁻¹
[2]; grown in I+ media, shocked in 15% Ethanol
  Specific Death Rates in 2% Glucose (d): 2.61 h⁻¹
[2]; grown in I+ media, shocked in 15% Ethanol, listed as ethanol
  Specific Death Rates in 2% Glucose (d): 2.61 h⁻¹ and 3.14 h⁻¹
[2]; grown in I− media, shocked in 10% Ethanol
  Specific Death Rates in 2% Glucose (d): 0.049 h⁻¹
[2]; grown in I− media, shocked in 15% Ethanol
  Specific Death Rates in 2% Glucose (d): 3.14 h⁻¹
[2]; grown in I− media, shocked in 15% Ethanol, listed as ethanol
  Specific Death Rates in 2% Glucose (d): 3.14 h⁻¹ and 2.61 h⁻¹
[2]; wild type, 10% ethanol, with or without inositol in growth media
  specific death rate d: less than 0.1 hr^−1
[2]; wild type, 15% ethanol
  d after growth in −I media higher than after growth in +I: 20%
[3]; +I media, 2% glucose
  increase in μ value for opi1 over wild type: 5%
[3]; +I media, 12% glucose
  increase in μ value for opi1 over wild type: 16%
[3]; −I media, 2% glucose
  increase in μ value for opi1 over wild type: 57%
[3]; −I media, 12% glucose
  increase in μ value for opi1 over wild type: 33%
[3]; opi1, I+ media, 2% glucose
  Specific Growth Rates in 2% Glucose (μ): 0.118 ± 0.012 h⁻¹
[3]; opi1, I+ media, 12% glucose
  Specific Growth Rates in 12% Glucose (μ): 0.127 ± 0.007 h⁻¹
[3]; opi1, I− media, 2% glucose
  Specific Growth Rates in 2% Glucose (μ): 0.102 ± 0.011 h⁻¹
[3]; opi1, I− media, 12% glucose
  Specific Growth Rates in 12% Glucose (μ): 0.076 ± 0.010 h⁻¹
[4]; I+ media
  Specific Growth Rates in 2% Glucose (μ): 0.111 ± 0.007 h⁻¹
  Specific Growth Rates in 12% Glucose (μ): 0.109 ± 0.010 h⁻¹
[4]; I− media
  Specific Growth Rates in 2% Glucose (μ): 0.065 ± 0.004 h⁻¹
  Specific Growth Rates in 12% Glucose (μ): 0.057 ± 0.007 h⁻¹
